In brackets after ≈: the same amount, converted by molar mass. Where two headings read alike, the source gives them in different places.
Assays:
PfPolδ-cat = molecular target: T1, PfPolδ-cat (Plasmodium falciparum, UniProt P30315); test: DNA polymerase assay, inhibitory effects of compounds on PfPolδ-cat activity; format: biochemical
T1 construct: The 3285-bp full-length PfPolδ-cat of P. falciparum K1 strain was successfully amplified and cloned; thioredoxin (N); His6 (C); made in house; host or cells: Escherichia coli LMG194
Experimental: DNA polymerase activity was assayed using activated calf thymus DNA (CT-DNA) (Sigma-Aldrich, MA, USA) as substrate. DNA polymerase assay was conducted in a 50-μl reaction mixture containing 10 μg of activated CT-DNA, 20 mM potassium phosphate buffer pH 8, 10 mM MgCl2, 2 mM DTT, 10 μg BSA, 50 μM each of dGTP, dATP and dCTP, 1 μM dTTP, 2.5 μM [α-^32P]dTTP (800 Ci/mmol; PerkinElmer, MA, USA), and 42 nM PfPolδ-cat. After incubation for 1 h at 37 °C, the reactions were terminated by adding a 250-μl mixture of 20 mM EDTA, 0.1 mg/ml BSA and 100 μl of 50 % trichloroacetic acid (TCA), followed by sedimentation. The precipitate was then washed twice with 1 % TCA and [^32P]dTMP incorporation was measured in a 1450 MicroBeta® Trilux Liquid Scintillation Counter (Perkin Elmer). One unit of DNA polymerase activity is defined as the amount of enzyme that catalyzes the incorporation of 1 nmol of dTMP into DNA in 1 h at 37 °C.
Inhibitory activity of 11 compounds consisting of substrate and nucleotide analogs and potential active site occupiers of PfPolδ-cat were compared with known Pol δ inhibitors, aphidicolin and N-ethylmaleimide (NEM). Stock solution (6 mM) of aphidicolin was prepared in dimethylsulfoxide (DMSO) and that of NEM (400 mM) in absolute ethanol. Stock solutions (10 mM) of N^2-(4-butylphenyl)-2′-deoxyguanosine 5′-triphosphate (BuPdGTP), N^2-(4-butylphenyl)- 2′-deoxyguanosine 5′-(P^2,P^3-carbonyltriphosphonate) (BuPdGMPPCOP), N^2-ethyl-2′-deoxyguanosine 5′-[…] (EtdGTP), N^2-hexyl-2′-deoxyguanosine 5′-triphosphate (HexdGTP) and Acyclovir triphosphate (ACV-TP) were prepared in sterile distilled water, while those of 2-amino-4-chloro-6-(3,4-dichloroanilino)pyrimidine, 2-amino-4-chloro-6-(3,5-dichloroanilino)pyrimidine, N^2-(3,4-dichlorobenzyl)guanine (DCBG), N^2-(3-fluoro,4-chlorobenzyl)guanine, 3-(4-hydroxybutyl)-6-(3-ethyl-4-methylanilino)uracil (HB-EMAU), and 7-acetoxypentyl-(3,4-dichlorobenzyl)guanine (7-acetoxypentyl-DCBG) were prepared in DMSO. All stock solutions were stored at −20 °C until used. Test concentrations of compounds were prepared by diluting stock solution with 10 mM Tris–HCl pH 8.0 and evaluated in triplicate. Compounds were added directly to the reaction mixtures except for NEM that was pre-incubated with enzyme for 30 min on ice before addition to the reaction mixture. Polymerase activity assays were conducted as described above.

[1] = system: Plasmodium falciparum K1 strain; test: Inhibition of intra-erythrocytic P. falciparum growth in culture (SYBR Green I-based assay); format: cell-based; conditions: K1 strain (chloroquine- and pyrimethamine-resistant), in vitro growth, triplicate
Experimental: Plasmodium falciparum strain K1, a chloroquine- and pyrimethamine-resistant strain from Thailand [28] was cultivated in RPMI 1640 medium (Invitrogen™, CA, USA) supplemented with 10 % human serum and human red blood cell (RBC) at 37 °C under an atmosphere of 5 % CO2. Plasmodium falciparum cultures containing mostly trophozoite and schizont stages were harvested when parasitaemia was >10 % by centrifugation at 500×g for 10 min at 25 °C.
Plasmodium falciparum K1 strain was synchronized at ring stage using 5 % D-sorbitol treatment and then mixed with culture medium containing RPMI 1640 medium supplement with 10 % human serum. Twofold serial dilutions of each test compound were evaluated in triplicate. Parasite growth was determined by a SYBR Green I-based assay. Dose–response curves and IC50 values were obtained using SigmaPlot 12.0.

[2] = set-up: method as in PMID 21684746; conditions: IP dose of 60 mg/kg; cited from earlier work
[3] = set-up: method as in PMID 21684746; conditions: potent antibiotic; cited from earlier work
[4] = recombinant PfPolδ-cat DNA polymerase activity, activated CT-DNA, 1 h at 37 °C, triplicate, read-out: IC50 PfPolδ-cat

T1 sequence (P30315 whole entry): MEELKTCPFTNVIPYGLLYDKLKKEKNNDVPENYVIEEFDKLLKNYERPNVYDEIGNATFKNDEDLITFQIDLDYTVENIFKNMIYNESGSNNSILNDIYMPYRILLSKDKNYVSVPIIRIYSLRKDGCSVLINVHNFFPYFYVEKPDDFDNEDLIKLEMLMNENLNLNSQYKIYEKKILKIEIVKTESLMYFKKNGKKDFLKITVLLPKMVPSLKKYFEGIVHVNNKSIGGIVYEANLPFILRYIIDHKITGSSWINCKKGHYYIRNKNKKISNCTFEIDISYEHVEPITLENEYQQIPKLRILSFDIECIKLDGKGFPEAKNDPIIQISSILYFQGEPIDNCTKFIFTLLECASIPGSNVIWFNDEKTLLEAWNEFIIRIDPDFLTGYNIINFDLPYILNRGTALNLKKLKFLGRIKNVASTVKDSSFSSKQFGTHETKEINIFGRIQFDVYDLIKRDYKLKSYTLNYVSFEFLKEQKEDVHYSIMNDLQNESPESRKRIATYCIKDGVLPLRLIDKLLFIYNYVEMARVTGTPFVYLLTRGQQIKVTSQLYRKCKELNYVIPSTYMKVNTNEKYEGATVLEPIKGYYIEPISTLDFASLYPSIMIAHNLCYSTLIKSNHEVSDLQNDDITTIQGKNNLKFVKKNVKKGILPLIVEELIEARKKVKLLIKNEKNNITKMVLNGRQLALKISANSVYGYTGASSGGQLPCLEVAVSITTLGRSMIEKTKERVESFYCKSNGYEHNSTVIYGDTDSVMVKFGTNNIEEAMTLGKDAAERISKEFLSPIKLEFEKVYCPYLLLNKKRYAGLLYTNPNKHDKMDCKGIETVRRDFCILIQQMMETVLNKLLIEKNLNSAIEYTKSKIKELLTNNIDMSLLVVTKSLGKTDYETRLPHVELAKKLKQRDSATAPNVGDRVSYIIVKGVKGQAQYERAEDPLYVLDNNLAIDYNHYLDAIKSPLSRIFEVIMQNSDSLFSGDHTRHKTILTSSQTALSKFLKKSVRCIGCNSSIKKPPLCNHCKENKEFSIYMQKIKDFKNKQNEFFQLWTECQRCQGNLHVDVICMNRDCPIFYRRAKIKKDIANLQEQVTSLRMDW

Row | IC50 ([1]; Plasmodium falciparum) [µM] | SMILES | IC50 (PfPolδ-cat; [4]) [µM] | also measured
1 | – | CC(=O)OCCCCCn1cnc2nc(NCc3ccc(Cl)c(Cl)c3)[nH]c(=O)c21 [7-acetoxypentyl-DCBG, 7-acetoxypentyl-(3,4-dichlorobenzyl)guanine] | 55 ± 3.4 | mice survived after treatment [2]: 80%; MIC [3]: 1.25 µg/mL (≈ 2.85 µM); IC50 [1]: 4.1 ± 0.2 µM
2 | 347 ± 8.3 | Nc1nc2c(ncn2COCCOP(=O)(O)OP(=O)(O)OP(=O)(O)O)c(=O)[nH]1 [Acyclovir triphosphate] | – | –
3 | – | CCCCc1ccc(Nc2nc3c(ncn3C3CC(O)C(COP(=O)(O)OP(=O)(O)C(=O)P(=O)(O)O)O3)c(=O)[nH]2)cc1 (centres unmarked) [BuPdGMPPCOP, N^2-(4-butylphenyl)-2′-deoxyguanosine 5′-(P^2,P^3-carbonyltriphosphonate)] | – | IC50 PfPolδ-cat (Inactive = <20 % inhibition at 100 μM) (PfPolδ-cat; recombinant PfPolδ-cat DNA polymerase activity, 100 μM compound): Inactive^a; IC50 [1]: 173 ± 2.7 µM
4 | 8.8 ± 0.5 | O=c1[nH]c(NCc2ccc(Cl)c(Cl)c2)nc2nc[nH]c12 [DCBG, N^2-(3,4-dichlorobenzyl)guanine] | – | –
5 | 86.4 ± 0.2 | CCCCCCNc1nc2c(ncn2[C@H]2C[C@H](O)[C@@H](COP(=O)(O)OP(=O)(O)OP(=O)(O)O)O2)c(=O)[nH]1 [HexdGTP, N^2-hexyl-2′-deoxyguanosine 5′-triphosphate] | – | –
6 | 7.4 ± 0.3 | O=c1[nH]c(NCc2ccc(Cl)c(F)c2)nc2nc[nH]c12 [N^2-(3-fluoro,4-chlorobenzyl)guanine] | – | –
7 | – | C[C@@]1(CO)[C@H](O)CC[C@@]2(C)[C@H]1CC[C@H]1C[C@@H]3C[C@@]12CC[C@]3(O)CO [aphidicolin, reference compound] | – | IC50 (PfPolδ-cat): 11.8 µM

Row | SMILES | IC50 ([1]; Plasmodium falciparum) [µM] | IC50 (PfPolδ-cat; [4]) [µM] | also measured
8 | Nc1nc(Cl)cc(Nc2ccc(Cl)c(Cl)c2)n1 [2-amino-4-chloro-6-(3′,4′-dichloroanilino)pyrimidine] | 3.8 ± 0.3 | 104 ± 5.6 | –
9 | Nc1nc(Cl)cc(Nc2cc(Cl)cc(Cl)c2)n1 [2-amino-4-chloro-6-(3′, 5′-dichloroanilino)pyrimidine] | 34.4 ± 0.4 | 185 ± 7.7 | –
10 | CCCCc1ccc(Nc2nc3c(ncn3[C@H]3C[C@H](O)[C@@H](COP(=O)(O)OP(=O)(O)OP(=O)(O)O)O3)c(=O)[nH]2)cc1 [BuPdGTP, N^2-(4-butylphenyl)-2′-deoxyguanosine 5′-triphosphate] | 85.6 ± 3.7 | 38 ± 1.7 | –

From publication PMC4766629, “Biochemical and functional characterization of Plasmodium falciparum DNA polymerase δ” (Malaria Journal, 2016)
